Usually inhibition stands for the relative decrease from the control value, in per cent. As usually defined, the pIC50 is the negative decadic logarithm of the IC50, by convention in mol/L. Read a high pIC50 as a low IC50.

pIC50: −log10 of the molar value.

This is an account of results in US10077261B2, “Imidazolin-5-one derivative useful as FASN inhibitors for the treatment of cancer” (Janssen Pharmaceutica NV, priority 2012, dated 2018).

Experiment [1] has as its target T1, hFASN enzyme (full length) (Homo sapiens, UniProt P49327).
T1 construct: 10 μL hFASN enzyme (full length, 300 ng, purified in house); made in house
Description: Fatty Acid Synthase (FASN) inhibition scintillation proximity assay. The following applies: for inhibition at 10 µM: read-out: Human FASN % inhibition @ 10 μM, 10 μM test compound; for IC50: read-out: Human FASN pIC50 (converted). The class given is biochemical. The method in brief: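 Purified full-length hFASN (300 ng) converts ^3H-acetyl-CoA plus malonyl-CoA to ^3H-palmitate in 100 mM KH2PO4 pH 7.5, 1 mM DTT; compounds tested at 0.01–30 μM. Product captured on streptavidin imaging beads and read by LEADseeker at 610 nm after ≥24 h; 4-parameter logistic fit versus controls.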
For orientation: Scintillation proximity formats need no separation of bound from free tracer.

Experiment [2] concerns A2780 ovarian cells. In words: A2780 ovarian cell proliferation assay in lipid reduced medium, with palmitate (MTT). In kind it is cell-based. The following applies: Homo sapiens, A2780, 96 h; read-out: pIC50 A2780 Ovarian Cell, With Palmitate (converted). A digest of the protocol: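 Seeded cells were switched next day to lipid-reduced serum, exposed to compound and 25 μM palmitate complexed with fatty-acid-free BSA, and incubated 96 h. Proliferation was then determined by MTT absorbance at 544 nm, with a best-fit curve of signal against concentration.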

Experiment [3] deals with A2780 ovarian cells. Description: A2780 ovarian cell proliferation assay in lipid reduced medium, without palmitate (MTT). In kind it is cell-based. The following applies: Homo sapiens, A2780, 96 h; read-out: pIC50 A2780 Ovarian Cell, Without Palmitate (converted).
The subject of experiment [4] is LNCaP-Vancouver prostate cells. In words: In vitro LNCaP Vancouver prostate cell proliferation assay in lipid reduced medium. In kind it is cell-based. To be noted: read-out: pIC50 LNCaP_Vancouver prostate cell (converted).
The subject of experiment [5] is PC-3M-Luc-C6 prostate cells. In words: In vitro PC-3M-Luc-C6 prostate cell proliferation assay in lipid reduced medium. In kind it is cell-based. The following applies: 96 h, read-out: pIC50 PC-3M-Luc-C6 prostate cell (converted).
The target of experiment [6] is Fatty Acid Synthase Keto-reductase Domain (FASN KR) (Homo sapiens, UniProt P49327). Description: Fatty Acid Synthase keto-reductase domain (FASN KR) inhibition, NADPH oxidation at 340 nm.
Sequence of Fatty Acid Synthase Keto-reductase Domain (FASN KR) (P49327 whole entry, the tested form may be a part): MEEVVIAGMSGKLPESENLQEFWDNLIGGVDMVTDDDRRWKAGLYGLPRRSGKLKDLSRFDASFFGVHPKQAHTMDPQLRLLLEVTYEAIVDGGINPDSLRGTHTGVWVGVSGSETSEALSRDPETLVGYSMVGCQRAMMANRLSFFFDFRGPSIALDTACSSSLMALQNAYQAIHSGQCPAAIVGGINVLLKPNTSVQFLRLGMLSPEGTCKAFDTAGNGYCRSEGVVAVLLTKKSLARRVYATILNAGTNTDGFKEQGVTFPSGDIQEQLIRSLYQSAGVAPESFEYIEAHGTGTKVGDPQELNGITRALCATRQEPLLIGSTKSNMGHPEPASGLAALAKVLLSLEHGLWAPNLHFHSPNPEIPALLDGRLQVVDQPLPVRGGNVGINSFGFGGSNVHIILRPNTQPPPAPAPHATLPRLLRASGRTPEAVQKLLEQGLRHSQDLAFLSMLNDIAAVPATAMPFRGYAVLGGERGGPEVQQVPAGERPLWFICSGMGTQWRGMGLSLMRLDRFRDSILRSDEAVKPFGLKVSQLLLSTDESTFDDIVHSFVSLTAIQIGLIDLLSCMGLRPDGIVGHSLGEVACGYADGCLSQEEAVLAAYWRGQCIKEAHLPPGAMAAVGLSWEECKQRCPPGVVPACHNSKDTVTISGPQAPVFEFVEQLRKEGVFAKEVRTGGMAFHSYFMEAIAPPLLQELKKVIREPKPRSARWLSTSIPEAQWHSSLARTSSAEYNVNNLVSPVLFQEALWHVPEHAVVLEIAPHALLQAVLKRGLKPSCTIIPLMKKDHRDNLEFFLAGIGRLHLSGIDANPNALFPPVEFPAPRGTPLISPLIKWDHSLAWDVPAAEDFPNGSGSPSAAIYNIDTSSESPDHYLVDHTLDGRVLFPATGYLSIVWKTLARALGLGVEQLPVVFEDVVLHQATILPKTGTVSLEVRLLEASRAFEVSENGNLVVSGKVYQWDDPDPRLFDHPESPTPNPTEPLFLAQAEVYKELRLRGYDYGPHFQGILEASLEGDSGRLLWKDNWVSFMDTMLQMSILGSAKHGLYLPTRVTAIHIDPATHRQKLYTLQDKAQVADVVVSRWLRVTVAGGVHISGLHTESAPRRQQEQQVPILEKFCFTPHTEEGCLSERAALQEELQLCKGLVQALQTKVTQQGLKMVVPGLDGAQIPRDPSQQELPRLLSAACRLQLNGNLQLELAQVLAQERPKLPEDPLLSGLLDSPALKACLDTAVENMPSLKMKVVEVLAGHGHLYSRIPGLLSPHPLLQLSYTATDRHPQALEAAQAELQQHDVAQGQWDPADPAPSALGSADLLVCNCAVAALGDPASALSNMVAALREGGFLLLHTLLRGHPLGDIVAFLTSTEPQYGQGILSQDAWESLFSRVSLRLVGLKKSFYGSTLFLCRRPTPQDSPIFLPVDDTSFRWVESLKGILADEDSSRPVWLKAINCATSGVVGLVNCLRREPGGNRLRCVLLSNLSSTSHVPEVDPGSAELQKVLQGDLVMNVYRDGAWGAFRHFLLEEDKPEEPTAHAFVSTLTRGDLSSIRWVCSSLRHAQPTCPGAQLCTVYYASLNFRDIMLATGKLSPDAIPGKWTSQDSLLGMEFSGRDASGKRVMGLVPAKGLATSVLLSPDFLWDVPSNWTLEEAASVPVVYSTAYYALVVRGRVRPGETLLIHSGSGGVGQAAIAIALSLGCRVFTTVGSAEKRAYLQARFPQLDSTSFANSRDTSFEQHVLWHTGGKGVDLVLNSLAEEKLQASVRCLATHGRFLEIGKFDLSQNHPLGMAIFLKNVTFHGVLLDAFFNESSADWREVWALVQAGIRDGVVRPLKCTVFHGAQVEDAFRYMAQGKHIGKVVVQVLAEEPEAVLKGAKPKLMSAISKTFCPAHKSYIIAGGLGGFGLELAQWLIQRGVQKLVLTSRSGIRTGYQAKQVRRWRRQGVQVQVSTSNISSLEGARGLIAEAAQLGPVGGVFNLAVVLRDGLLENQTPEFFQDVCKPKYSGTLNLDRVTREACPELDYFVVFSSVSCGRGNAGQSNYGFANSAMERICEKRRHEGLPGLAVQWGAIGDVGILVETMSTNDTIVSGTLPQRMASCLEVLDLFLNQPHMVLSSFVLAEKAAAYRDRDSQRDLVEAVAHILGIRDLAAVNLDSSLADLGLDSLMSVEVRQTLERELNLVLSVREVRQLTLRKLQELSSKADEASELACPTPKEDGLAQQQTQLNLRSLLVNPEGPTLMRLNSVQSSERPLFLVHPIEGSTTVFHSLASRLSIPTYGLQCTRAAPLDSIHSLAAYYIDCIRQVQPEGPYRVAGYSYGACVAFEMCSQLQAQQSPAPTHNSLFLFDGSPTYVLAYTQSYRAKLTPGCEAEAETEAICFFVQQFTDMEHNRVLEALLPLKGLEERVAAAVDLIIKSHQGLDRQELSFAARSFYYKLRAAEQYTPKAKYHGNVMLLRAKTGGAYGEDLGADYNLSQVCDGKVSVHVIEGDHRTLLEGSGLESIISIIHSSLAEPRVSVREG
Description: After 20 minutes incubation at room temperature the plate was measured again (T2).
The decrease in absorbance was calculated as (Absorbance before incubation T1)−(Absorbance following incubation T2).
A plot of Controlmin versus test compound concentration was fitted to a 4-parameter logistic curve using a non-linear least squares regression method.

T1 sequence (P49327 whole entry): as the sequence (P49327 whole entry, the tested form may be a part) above

For the compound `COc1ccc2cc(-c3ccc(C4=NC5(CC5)C(=O)N4CC4CN(C(=O)C5CC5)C4)c(F)c3)ccc2c1` [compound 351, 6-((1-(cyclopropanecarbonyl)azetidin-3-yl)methyl)-5-(2-fluoro-4-(6-methoxynaphthalen-2-yl)phenyl)-4,6-diazaspiro[2.4]hept-4-en-7-one], the inhibition at 10 µM in experiment [1] amounted to 95%. Further, the IC50 in experiment [1] was 74.1 nM; in the experiment with A2780 ovarian cells [2], 8.51 µM; in the experiment on A2780 ovarian cells [3], 28.2 nM; in experiment [4], 57.5 nM; in experiment [5], 13.8 nM. In experiment [6], the pIC50 was 7.21.

`Cc1cc2cc(-c3ccc(C4=NC5(CC5)C(=O)N4CC4CN(C(=O)C5(C)CC5)C4)c(F)c3)ccc2s1` [compound 352, 5-(2-fluoro-4-(2-methylbenzo[b]thiophen-5-yl)phenyl)-6-((1-(1-methylcyclopropanecarbonyl)azetidin-3-yl)methyl)-4,6-diazaspiro[2.4]hept-4-en-7-one]: the inhibition at 10 µM in experiment [1] amounted to 94%. Moreover, the IC50 in experiment [1] was 74.1 nM; with A2780 ovarian cells [2], 3.02 µM; with A2780 ovarian cells [3], roughly 123 nM; in experiment [4], 562 nM; in experiment [5], 162 nM. Besides, the negative-log IC50 (pIC50) in experiment [6] was 7.03.

In the case of `Cc1cc2cc(-c3ccc(C4=NC5(CC5)C(=O)N4CC4CN(C(=O)C5CC5)C4)c(F)c3)ccc2o1` [compound 353, 6-((1-(cyclopropanecarbonyl)azetidin-3-yl)methyl)-5-(2-fluoro-4-(2-methylbenzofuran-5-yl)phenyl)-4,6-diazaspiro[2.4]hept-4-en-7-one], in experiment [1], the inhibition at 10 µM was found to be 101%. For the same compound, the IC50 in experiment [1] is 55 nM; in the experiment on A2780 ovarian cells [2] it was 6.03 µM; in the experiment on A2780 ovarian cells [3], 245 nM; in experiment [4] it was 1150 nM; in experiment [5], 437 nM. The same compound showed a pIC50 in experiment [6] of 6.97.

Turning to `Cc1cc2cc(-c3ccc(C4=NC5(CC5)C(=O)N4C[C@@H]4CCN(C(=O)C5(O)CC5)C4)c(F)c3)ccc2s1` [compound 354, (R)-5-(2-fluoro-4-(2-methylbenzo[b]thiophen-5-yl)phenyl)-6-((1-(1-hydroxycyclopropanecarbonyl)pyrrolidin-3-yl)methyl)-4,6-diazaspiro[2.4]hept-4-en-7-one], the inhibition at 10 µM in experiment [1] was found to be 100%. The IC50 was 50.1 nM in experiment [1]; greater than 10 µM in the experiment on A2780 ovarian cells [2]; 30.9 nM with A2780 ovarian cells [3]; 245 nM in experiment [4]; 35.5 nM in experiment [5]. Besides, the pIC50 in experiment [6] was 6.95.

As to `Cc1cc2cc(-c3ccc(C4=NC5(CC5)C(=O)N4C[C@@H]4CCN(C(=O)C5(O)CC5)C4)c(F)c3)ccc2o1` [compound 355, (R)-5-(2-fluoro-4-(2-methylbenzofuran-5-yl)phenyl)-6-((1-(1-hydroxycyclopropanecarbonyl)pyrrolidin-3-yl)methyl)-4,6-diazaspiro[2.4]hept-4-en-7-one], the inhibition at 10 µM in experiment [1] was determined as 96%. The IC50 was 30.2 nM in experiment [1]; greater than 10 µM with A2780 ovarian cells [2]; 30.2 nM in the experiment on A2780 ovarian cells [3]; 575 nM in experiment [4]; 58.9 nM in experiment [5]. This compound also showed a pIC50 in experiment [6] of 7.37.

Regarding `Cc1nc2cc(-c3ccc(C4=NC5(CC5)C(=O)N4CC4CN(C(=O)C5CC5)C4)c(F)c3)ccc2s1` [compound 356, 6-((1-(cyclopropanecarbonyl)azetidin-3-yl)methyl)-5-(2-fluoro-4-(2-methylbenzo[d]thiazol-5-yl)phenyl)-4,6-diazaspiro[2.4]hept-4-en-7-one], the inhibition at 10 µM in experiment [1] was found to be 99%. For the same compound, the IC50 in experiment [1] was 102 nM; with A2780 ovarian cells [2] it was greater than 10 µM; in the experiment on A2780 ovarian cells [3], roughly 162 nM; in experiment [4], 1480 nM; in experiment [5], roughly 324 nM. This compound also had a pIC50 in experiment [6] of 6.32.
